Experimental data published in patent US10464928B2, “Amino pyrimidine SSAO inhibitors” (Eli Lilly and Company, priority 2016, dated 2019).
Values belong to the compound of their own block, whether it stands above or below them.

Assays:
[1] = Plasma compound level in 3H diet mice by mass spectroscopy; assay type: in vivo, Male C57BL/6N mice; conditions: treated mice, all doses
Method: Male C57BL/6N mice are fed with D09100301 diet (Research Diets, 40% fat, 2% cholesterol, 24% fructose, (the, high fat, high cholesterol and high fructose, the “3H diet”) for 150 days. Each mouse is then singly housed after 5 days for an acclimation period. Plasma alanine aminotransferase (ALT) and cytokeratin 18 (CK18) are measured. After one week of recovery, the mice are randomized into 5 groups based on their ALT values, CK18 values, and body weight. Animals of each group are administrated either vehicle (0.5% methylcellulose (MC)+0.25% Tween 80 in distilled water) or the compound of Example 6 (at a 0.06, 2, 6, and 20 mg/kg dose) once daily in a volume of 5 ml/kg for 11 weeks. Blood is collected from mice treated with the compound of Example 6 for 76 days 2 hours after the last dose. Compound levels in the plasma are analyzed by mass spectroscopy.

[2] = tested on: NASH and fibrosis induced by 3H diet; assay: Mouse Model of NASH and Fibrosis Induced by 3H Diet; assay type: in vivo, Male C57BL/6N mice; conditions: for Perisinusoidal fibrosis Left, Score (0-3) / Hepatic inflammation Left, Score (0-3) / Macrovesicular vaculation Left, Score (0-3): left lobe; for Perisinusoidal fibrosis Left, Score (0-3): vehicle 2.5 ± 0.2; for Hepatic inflammation Left, Score (0-3) / Macrovesicular vaculation Left, Score (0-3) / Macrovesicular vaculation Right, Score (0-3): vehicle 2.8 ± 0.1; for Perisinusoidal fibrosis Right, Score (0-3) / Hepatic inflammation Right, Score (0-3) / Macrovesicular vaculation Right, Score (0-3): right lobe; for Perisinusoidal fibrosis Right, Score (0-3): vehicle 2.3 ± 0.1; for Hepatic inflammation Right, Score (0-3): vehicle 2.7 ± 0.1
Method: Male C57BL/6N mice are fed with D09100301 diet (Research Diets, 40% fat, 2% cholesterol, 24% fructose, (the, high fat, high cholesterol and high fructose, the “3H diet”) for 150 days. Each mouse is then singly housed after 5 days for an acclimation period. Plasma alanine aminotransferase (ALT) and cytokeratin 18 (CK18) are measured. After one week of recovery, the mice are randomized into 5 groups based on their ALT values, CK18 values, and body weight. […] Blood is collected from mice treated with the compound of Example 6 for 76 days 2 hours after the last dose. Compound levels in the plasma are analyzed by mass spectroscopy. […] At the completion of the study, the animals are sacrificed and their livers excised. Two sections of the left and right lobes are fixed in neutral buffered 10% formalin. Liver tissue slides are stained with hematoxylin and eosin (H&E), Sirius red, and Masson's Trichrome to prepare slides for pathological analysis. All specimens are examined microscopically and scored as a modified Brunt score NASH Activity Score. Scores are based on the grading scheme and end-points as described in Brunt E. M, et al., “Histopathology of nonalcoholic fatty liver disease,” World J. of Gastroenterol, 2010, 16(42), 5286-5296. Group means are then calculated for each individual end-point. The following endpoints are used to characterize the fast food model of NASH in mice as modified from NASH endpoints (See Brunt, E. M. “Histopathology of nonalcoholic fatty liver disease,” Clin Liver Dis., 2009, 13, 533-544 and Brunt, E. M, et al., “Nonalcoholic steatohepatitis: A proposal for grading and staging the histological lesions”, Am J Gastroenterology, 1999, 94(9), 2467-2474.

[3] = tested on: SSAO activity in rat plasma and liver tissues; assay: SSAO Target Engagement (residual SSAO activity in rat plasma and liver after dosing); assay type: in vivo; conditions: doses 0.005-15 mg/kg
Method: The SSAO activity in rat plasma and liver tissues are measured using the MAO-Glo™ assay kit from Promega (V1402). The residual SSAO activity in rats after compound treatment is estimated by measuring the total amine oxidase activity in plasma or liver lysates that are insensitive to the presence of the MAO inhibitor Clogyline and Pargyline. Rats are administered the compound of Example 2 at the doses of 15, 3, 0.6, 0.12, 0.025, 0.005 mg/kg. The control group is administered with the same volume (2 ml/kg) of the dosing vehicle (hydroxyethyl cellulose 1% w/v, 0.25% Tween 80). Plasma and liver at 2 or 24 hours post compound treatment are harvested and stored at −78° C. until analysis. Tissue lysates are prepared by homogenization in a lysis buffer (20 mM HEPES, pH 7.4, 150 mM NaCl, 1 mM EDTA, 1 mM EGTA, 1% Triton X-100 and 1× Roche Complete protease inhibitor tablet). Tissue particles are removed by centrifugation at 12,000 rpm at 4° C. for 30 minutes. 40 μl of plasma or liver lysates is incubated with Clogyline (10 μM) and Pargyline (10 μM) for 20 minutes at room temperature before the addition of the luminogenic substrate (50 μM) for 60 minutes. The product generated is quantified according to the manufacture's procedure. […] The compound of Example 2 was evaluated in the protocol essentially as described above administered at various doses.

- plasma compound levels (result in words) [1]: dose-dependent increase
SMILES: Cl.Cl.NC/C(=C\F)COc1cnc(N2CC[C@H](O)C2)nc1 [Example 6, (3S)-1-[5-[(E)-2-(Aminomethyl)-3-fluoro-allyloxy]pyrimidin-2-yl]pyrrolidin-3-ol; Dihydrochloride]
- Perisinusoidal fibrosis Left, Score (0-3) ([2]; 0.6 mg/kg once daily 11 weeks): 2.4 ± 0.2
- Hepatic inflammation Left, Score (0-3) ([2]; 0.6 mg/kg once daily 11 weeks): 2.6 ± 0.1
- Macrovesicular vaculation Left, Score (0-3) ([2]; 0.6 mg/kg once daily 11 weeks): 2.5 ± 0.1
- Perisinusoidal fibrosis Right, Score (0-3) ([2]; 0.6 mg/kg once daily 11 weeks): 1.9 ± 0.2
- Hepatic inflammation Right, Score (0-3) ([2]; 0.6 mg/kg once daily 11 weeks): 2.5 ± 0.1
- Macrovesicular vaculation Right, Score (0-3) ([2]; 0.6 mg/kg once daily 11 weeks): 2.6 ± 0.1
- Perisinusoidal fibrosis Left, Score (0-3) ([2]; 2 mg/kg once daily 11 weeks): 2.5 ± 0.2
- Hepatic inflammation Left, Score (0-3) ([2]; 2 mg/kg once daily 11 weeks): 2.5 ± 0.1
- Macrovesicular vaculation Left, Score (0-3) ([2]; 2 mg/kg once daily 11 weeks): 2.5 ± 0.1
- Perisinusoidal fibrosis Right, Score (0-3) ([2]; 2 mg/kg once daily 11 weeks): 1.8 ± 0.2
- Hepatic inflammation Right, Score (0-3) ([2]; 2 mg/kg once daily 11 weeks): 2.6 ± 0.1
- Macrovesicular vaculation Right, Score (0-3) ([2]; 2 mg/kg once daily 11 weeks): 2.7 ± 0.1
- Perisinusoidal fibrosis Left, Score (0-3) ([2]; 6 mg/kg once daily 11 weeks): 2.6 ± 0.2
- Hepatic inflammation Left, Score (0-3) ([2]; 6 mg/kg once daily 11 weeks): 2.5 ± 0.2
- Macrovesicular vaculation Left, Score (0-3) ([2]; 6 mg/kg once daily 11 weeks): 2.9 ± 0.1
- Perisinusoidal fibrosis Right, Score (0-3) ([2]; 6 mg/kg once daily 11 weeks): 2.1 ± 0.3
- Hepatic inflammation Right, Score (0-3) ([2]; 6 mg/kg once daily 11 weeks): 2.6 ± 0.2
- Macrovesicular vaculation Right, Score (0-3) ([2]; 6 mg/kg once daily 11 weeks): 2.7 ± 0.1
- hepatic inflammation (result in words) ([2]; 20 mg/kg): significant decrease
- macrovesicular vaculation (result in words) ([2]; 20 mg/kg): significant decrease
- perisinusoidal fibrosis (result in words) ([2]; 20 mg/kg): significant decrease
- Perisinusoidal fibrosis Left, Score (0-3) ([2]; 20 mg/kg once daily 11 weeks): 1.9 ± 0.2
- Hepatic inflammation Left, Score (0-3) ([2]; 20 mg/kg once daily 11 weeks): 2.1 ± 0.1
- Macrovesicular vaculation Left, Score (0-3) ([2]; 20 mg/kg once daily 11 weeks): 2.4 ± 0.2
- Perisinusoidal fibrosis Right, Score (0-3) ([2]; 20 mg/kg once daily 11 weeks): 1.5 ± 0.2
- Hepatic inflammation Right, Score (0-3) ([2]; 20 mg/kg once daily 11 weeks): 2.1 ± 0.1
- Macrovesicular vaculation Right, Score (0-3) ([2]; 20 mg/kg once daily 11 weeks): 2.3 ± 0.1
- triglyceride levels in blood (result in words) ([2]; 6 and 20 mg/kg): decreased
- ALT (result in words) ([2]; all groups of treated mice vs vehicle): significant decrease

SMILES: Cl.Cl.NC/C(=C\F)COc1cnc(N2CCC(O)CC2)nc1 [Example 2, 1-[5-[(E)-2-(Aminomethyl)-3-fluoro-allyloxy]pyrimidin-2-yl]piperidin-4-ol dihydrochloride]
- SSAO activity in rat plasma and liver (result in words) [3]: dose-dependently inhibits SSAO activity
